Target: T1, formyl peptide receptor 2 (FPR2) (Homo sapiens, UniProt P25090)
T1 construct: human FPR2 stably expressed in RBL-2H3 cells; FPR2-ICL3-FlAsH/C-terminal ECFP in HEK-293 cells for FRET
T1 sequence (P25090 1-351): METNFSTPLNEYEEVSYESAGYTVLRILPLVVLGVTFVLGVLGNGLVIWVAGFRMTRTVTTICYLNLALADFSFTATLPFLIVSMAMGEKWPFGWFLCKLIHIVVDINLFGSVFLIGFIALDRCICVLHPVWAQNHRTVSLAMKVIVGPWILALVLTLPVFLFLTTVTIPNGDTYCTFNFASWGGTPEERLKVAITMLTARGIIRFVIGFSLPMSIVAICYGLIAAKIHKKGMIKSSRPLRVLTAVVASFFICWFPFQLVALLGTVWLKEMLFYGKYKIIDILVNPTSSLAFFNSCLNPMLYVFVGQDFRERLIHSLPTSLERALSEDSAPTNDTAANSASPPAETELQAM
Assay: competition with WK(FITC)YMVm on RBL-FPR2 cells by flow cytometry (partial); FlAsH FRET conformational change
Type: cell-based

- IC50: 3.2 µM
SMILES: CC(C)=CCC/C(C)=C/CC/C(=C/Cc1cc(O)ccc1O)CO [C18, ganomycin F]

Source: publication PMC7105723, “A Ganoderma-Derived Compound Exerts Inhibitory Effect Through Formyl Peptide Receptor 2” (Frontiers in Pharmacology, 2020)
